Experimental data from BigSolDB 2.1.

O=C(Nc1ccncc1)c1cc(C(=O)Nc2ccncc2)cc(C(=O)Nc2ccncc2)c1
solubility (mole fraction)
Details	283.15 K	288.15 K	293.15 K	298.15 K	303.15 K	313.15 K	323.15 K
in 2-butanone	0.00034	–	0.000455	–	0.000519	0.000577	0.000675
in acetone	6.66e-06	–	1.54e-05	–	1.86e-05	2.5e-05	3.64e-05
in acetonitrile	7.35e-05	–	9.53e-05	–	0.00012	0.000146	0.000183
in dichloromethane	3.08e-05	4.23e-05	5.41e-05	6e-05	6.77e-05	–	–
in ethanol	4.73e-05	–	6.07e-05	–	7.59e-05	8.97e-05	0.000104
in ethyl acetate	0.000114	–	0.000137	–	0.000153	0.000178	0.000196
in isopropanol	0.000265	–	0.000302	–	0.000355	0.000405	0.000431
in methanol	5.21e-05	–	6.76e-05	–	9.65e-05	0.00013	0.000163
in n-butanol	0.000156	–	0.0002	–	0.000235	0.000297	0.000371
in n-hexane	1.15e-05	–	2.45e-05	–	4.03e-05	5.54e-05	6.95e-05
in n-propanol	0.000217	–	0.000244	–	0.000255	0.000277	0.00029
in water	4.65e-06	–	5.71e-06	–	7.83e-06	8.34e-06	1.6e-05
